Reference: patent US20260207614A1, “IRAK4 DEGRADERS AND USES THEREOF” (Kymera Therapeutics, Inc., priority 2022, published 2026)
Entries after “also recorded” stand apart in the source; their conditions may differ. Read-outs that look alike come from different tables or passages of the source.

Key:
[1] = Phase 1 MAD plasma PK in healthy volunteers; type: in vivo, human; conditions: for Ctrough / AUC: Day 14, geometric mean (% CV); for AUC: read-out: AUC24; for Tmax: Day 14, median (range); for Cmax: Day 14 steady state, geometric mean (% CV)
Procedure: The selection of Compound A doses will be guided by the safety, tolerability, and PK data in humans from the SAD portion of the study. […] Increasing dose levels in subsequent MAD cohorts will be identified based on the safety and PK observed in the previous SAD and MAD cohorts. Dose escalation between each MAD cohort will not exceed 100%.
However, the dosing interval and the duration of dosing may change following review of the safety, PK, and PD data from Part A.
A MAD5 cohort was added including five twice-weekly doses of 200 mg.
Geometric Mean (% CV) reported for all parameters, except tmax where median (range) are presented. Accumulation Ratio represents fold change in exposure from Day 1 to Day 14.

[2] = Plasma protein binding and red blood cell partitioning; type: in vitro ADME, nonclinical species and humans
[3] = Phase 1 Part C Compound A skin concentration; type: in vivo, human; conditions: FIG. 20, Day 28
Phase 1 Part C safety = type: in vivo, human
[4] = test system: proinflammatory gene transcripts; assay: Phase 1 Part C proinflammatory gene transcripts in skin lesions (RNAseq); type: in vivo, human; conditions: Day 28 compared to baseline
[5] = target: T1, breast cancer resistance protein (BCRP) (Homo sapiens, UniProt Q9UNQ0); assay: BCRP substrate and efflux inhibition in vitro; type: in vitro ADME
T1 sequence (Q9UNQ0 1-655): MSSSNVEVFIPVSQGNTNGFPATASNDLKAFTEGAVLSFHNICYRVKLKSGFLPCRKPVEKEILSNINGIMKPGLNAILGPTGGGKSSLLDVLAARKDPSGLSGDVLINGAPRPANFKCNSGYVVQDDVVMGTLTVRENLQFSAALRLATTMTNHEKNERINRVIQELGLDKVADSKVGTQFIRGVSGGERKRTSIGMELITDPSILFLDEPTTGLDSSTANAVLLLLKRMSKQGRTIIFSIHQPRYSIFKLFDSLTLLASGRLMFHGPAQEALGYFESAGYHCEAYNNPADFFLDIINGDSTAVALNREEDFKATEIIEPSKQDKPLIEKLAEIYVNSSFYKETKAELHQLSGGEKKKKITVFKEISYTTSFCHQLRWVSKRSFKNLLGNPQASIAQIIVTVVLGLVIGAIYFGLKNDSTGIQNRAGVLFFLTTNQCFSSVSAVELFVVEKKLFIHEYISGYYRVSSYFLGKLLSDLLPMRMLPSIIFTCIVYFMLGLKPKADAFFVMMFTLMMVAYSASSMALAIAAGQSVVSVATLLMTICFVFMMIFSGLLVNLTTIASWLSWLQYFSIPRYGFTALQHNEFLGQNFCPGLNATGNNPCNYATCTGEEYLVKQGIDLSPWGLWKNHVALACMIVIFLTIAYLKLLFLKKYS
Description: (§1) In in vivo pharmacokinetic (PK) studies conducted in rats, dogs, and monkeys.
Metabolites generated in liver microsomes from humans were also detected in those from rat, dog, and monkey. In the in vitro drug-drug interaction studies.

Permeability = type: in vitro ADME
Description: as §1
Compound A can be classified tentatively as a BCS II compound.

[6] = In vivo PK studies in rats, dogs and monkeys
Description: as §1

[7] = test system: disease-relevant cytokines ex vivo; assay: Phase 1 Part C ex vivo cytokine stimulation assays; type: in vivo, human
Description: Plots show median of the maximum change from baseline between Days 7-14 in MAD3 and Days 14-28 in Part C.
IL-36, IFN-g, IL-8, IL-5, GZMB and COX2 in HS and IL-5, IL-31, NLRP3, CXCL1 and IL-2RB in AD (FIG. 25A-B).

Phase 1 MAD safety = type: in vivo, human; conditions: multiple daily doses over 14 days up to 200 mg (MAD 4)
Description: Steady-state plasma levels were reached by Day 7, with approximately 3-fold increase in exposure on Day 14 compared to Day 1.

Q: Which Ctrough ([1]; 25 mg QD) does the source give for `Cn1c(=O)n([C@@H]2CCC(=O)NC2=O)c2cccc(C#CCOC3CCN(C[C@H]4CC[C@H](n5cc(NC(=O)c6cnn7ccc(N8C[C@H]9C[C@@H]8CO9)nc67)c(C(F)F)n5)CC4)CC3)c21` [Compound A, 5-((1R,4R)-2-oxa-5-azabicyclo[2.2.1]heptan-5-yl)-N-(3-(difluoromethyl)-1-((1r,4R)-4-((4-((3-(1-(2,6-dioxopiperidin-3-yl)-3-methyl-2-oxo-2,3-dihydro-1H-benzo[d]imidazol-4-yl)prop-2-yn-1-yl)oxy)piperidin-1-yl)methyl)cyclohexyl)-1H-pyrazol-4-yl)pyrazolo[1,5-a]pyrimidine-3-carboxamide] here?
A: 5.03 (30.3) ng/mL

Q: And the Ctrough ([1]; 50 mg QD)?
A: 7.28 (35.1) ng/mL

Q: And the Ctrough ([1]; 100 mg QD)?
A: 9.81 (30.1) ng/mL

Q: What about the Ctrough ([1]; 200 mg QD) of the same compound?
A: 18.8 (32.6) ng/mL

Q: And the “day of dosing by which steady-state plasma levels reached” value ([1]; MAD, once daily)?
A: ≤ 7 days

Q: What about the AUC ([1]; human, plasma, oral, 25 mg QD) of the same compound?
A: 153 ng·h/mL

Q: What about the Tmax ([1]; human, plasma, oral, 25 mg QD) of the same compound?
A: 8 h

Q: And the Cmax ([1]; human, plasma, oral, 25 mg QD)?
A: 8.2 ng/mL

Q: And the AUC ([1]; human, plasma, oral, 50 mg QD)?
A: 224 ng·h/mL

Q: And the Tmax ([1]; human, plasma, oral, 50 mg QD)?
A: 8 h

Q: What about the Cmax ([1]; human, plasma, oral, 50 mg QD) of the same compound?
A: 12 ng/mL

Q: And the AUC ([1]; human, plasma, oral, 100 mg QD)?
A: 314 ng·h/mL

Q: And the Tmax ([1]; human, plasma, oral, 100 mg QD)?
A: 8 h

Q: And the Cmax ([1]; human, plasma, oral, 100 mg QD)?
A: 16.1 ng/mL

Q: What about the AUC ([1]; human, plasma, oral, 200 mg QD) of the same compound?
A: 498 ng·h/mL

Q: And the Tmax ([1]; human, plasma, oral, 200 mg QD)?
A: 8 h

Q: What about the Cmax ([1]; human, plasma, oral, 200 mg QD) of the same compound?
A: 25.2 ng/mL

Q: And the half-life ([1]; human, plasma, oral, healthy volunteers, read-out: half-life, range observed in MAD)?
A: 34 to 59 h

Q: And the “partitioning into red blood cells” value [2]?
A: did not significantly partition into red blood cells

Q: What about the plasma protein binding ([2]; across nonclinical species and humans) of the same compound?
A: highly bound

Q: And the “skin concentration of Compound A in HS or AD patient compared to healthy volunteer” value [3]?
A: about 2 fold

Q: What about the “course of QTc prolongation with continued dosing” value (Phase 1 Part C safety) of the same compound?
A: resolution to baseline by Day 28; also recorded: spontaneously resolved to baseline by Day 28

Q: What about the serious adverse events (Phase 1 Part C safety) of the same compound?
A: no serious adverse events

Q: What about the “severity of adverse events (headache, fatigue, diarrhea)” value (Phase 1 Part C safety) of the same compound?
A: predominantly mild

Q: What about the safety and tolerability (Phase 1 Part C safety; 75 mg QD fed, 28 days, HS/AD patients) of the same compound?
A: generally safe and well-tolerated

Q: What about the QTcF prolongation (Phase 1 Part C safety; Days 7-14) of the same compound?
A: modest, non-adverse QTcF prolongation

Q: And the “downregulation of proinflammatory gene transcripts in skin lesions (IL-5, IL-31, NLRP3, CXCL1, IL-2RB)” value ([4]; AD patients)?
A: > 25%

Q: And the “downregulation of proinflammatory gene transcripts in skin lesions (IL-1b, IL-17, IL-36, IFN-g, IL-8, IL-5, GZMB, COX2)” value ([4]; HS patients)?
A: > 25%

Q: What about the “inhibition of BCRP efflux” value [5] of the same compound?
A: inhibited BCRP efflux

Q: What about the “substrate of breast cancer resistance protein (BCRP)” value [5] of the same compound?
A: substrate

Q: What about the permeability (Permeability) of the same compound?
A: medium; also recorded: moderate

Q: And the bioavailability [6]?
A: low to moderate

Q: And the clearance [6]?
A: moderate to high

Q: And the terminal half-life [6]?
A: moderate

Q: And the “volume of distribution at steady state” value [6]?
A: high

Q: And the “inhibition of disease-relevant cytokines ex vivo, maximum” value ([7]; AD patients)?
A: up to 98%

Q: And the “cytokine inhibition, IFN-γ” value ([7]; AD patients, FIG. 23)?
A: up to 95%

Q: What about the “cytokine inhibition, IL-1β” value ([7]; AD patients, FIG. 23) of the same compound?
A: up to 81%

Q: And the “cytokine inhibition, IL-6” value ([7]; AD patients, FIG. 23)?
A: up to 74%

Q: What about the “cytokine inhibition, IL-8” value ([7]; AD patients, FIG. 23) of the same compound?
A: up to 85%

Q: And the “cytokine inhibition, IL-10” value ([7]; AD patients, FIG. 23)?
A: up to 98%

Q: What about the “cytokine inhibition, IL-12” value ([7]; AD patients, FIG. 23) of the same compound?
A: up to 76%

Q: What about the “cytokine inhibition, IL-17” value ([7]; AD patients, FIG. 23) of the same compound?
A: up to 83%

Q: And the “cytokine inhibition, IL-23” value ([7]; AD patients, FIG. 23)?
A: up to 95%

Q: And the “cytokine inhibition, TNF-α” value ([7]; AD patients, FIG. 23)?
A: up to 74%

Q: And the “inhibition of disease-relevant cytokines ex vivo, maximum” value ([7]; HS patients)?
A: up to 84%

Q: And the “cytokine inhibition, IFN-γ” value ([7]; HS patients, FIG. 23)?
A: up to 76%

Q: What about the “cytokine inhibition, IL-1β” value ([7]; HS patients, FIG. 23) of the same compound?
A: up to 57%

Q: What about the “cytokine inhibition, IL-6” value ([7]; HS patients, FIG. 23) of the same compound?
A: up to 50%

Q: What about the “cytokine inhibition, IL-8” value ([7]; HS patients, FIG. 23) of the same compound?
A: up to 59%

Q: And the “cytokine inhibition, IL-10” value ([7]; HS patients, FIG. 23)?
A: up to 52%

Q: What about the “cytokine inhibition, IL-12” value ([7]; HS patients, FIG. 23) of the same compound?
A: up to 84%

Q: And the “cytokine inhibition, IL-17” value ([7]; HS patients, FIG. 23)?
A: up to 46%

Q: And the “cytokine inhibition, TNF-α” value ([7]; HS patients, FIG. 23)?
A: up to 54%

Q: What about the “inhibition of 9 disease-relevant cytokines ex vivo, maximum” value ([7]; HS/AD patients, median of maximum change from baseline Days 14-28) of the same compound?
A: up to 98%

Q: And the safety and tolerability (Phase 1 MAD safety)?
A: safe and well-tolerated
